ChEMBL document CHEMBL4699423, “Photocontrolled activation of small molecule cancer therapeutics” (RSC Med Chem, 2020)

Key:
[1] = Cytotoxicity against human MCF-10A cells; type: cell-based; conditions: read-out: LD50 (the source's name)
HCT-116 = experiment: Cytotoxicity against human HCT-116 cells; type: functional; conditions: read-out: LD50 (the source's name)
MDA-MB-468 = experiment: Cytotoxicity against human MDA-MB-468 cells; type: functional; conditions: read-out: LD50 (the source's name)
MDA-MB-231 [2] = experiment: Cytotoxicity against human MDA-MB-231 cells in dark; type: functional, cell-based
MDA-MB-231 [3] = experiment: Cytotoxicity against human MDA-MB-231 cells; type: functional, cell-based

Row | Compound | CC50 [1] [µM] | CC50 (HCT-116) [µM] | CC50 (MDA-MB-468) [µM] | EC50 (MDA-MB-231 [2]) [µM] | EC50 (MDA-MB-231 [3]) [µM]
1 | CC(C)C[C@H](NC(=O)[C@@H](NC(=O)c1ccc(/N=N/c2ccc(-c3ccccc3)cc2)cc1)[C@@H](C)O)B1OC2C[C@@H]3C[C@H](C2O1)C3(C)C (stereo partly drawn) | > 5 | 0.246 | 0.683 | – | –
2 | COc1ccc(/N=N/c2cc(OC)c(OC)c(OC)c2)cc1O | – | – | – | 38 | –
3 | COc1ccc(/N=N\c2cc(OC)c(OC)c(OC)c2)cc1O | – | – | – | – | 0.5
4 | CC(C)C[C@H](NC(=O)[C@@H](NC(=O)c1ccc(/N=N\c2ccc(-c3ccccc3)cc2)cc1)[C@@H](C)O)B1OC2C[C@@H]3C[C@H](C2O1)C3(C)C (stereo partly drawn) | 0.144 | 0.212 | 1.03 | – | –
